These results are taken from patent publication US12018023B2 (NERVIANO MEDICAL SCIENCES S.R.L., priority 2018, dated 2024).

Usually IC50 stands for the concentration at which inhibition is half-maximal. Higher therefore signals weaker potency in that assay.

In one experiment the target is T1, IDH1^R132C (Homo sapiens, UniProt O75874, R132C).
T1 construct: purchased not specified
Nature of the experiment: NADPH depletion assay, IDH1 R132C. In kind it is biochemical. On the procedure: (§1) IDH mutated enzyme activity converting alpha-ketoglutarate to 2-hydroxyglutaric acid is measured using a NADPH depletion assay. In the assay the remaining cofactor is measured at the end of the reaction with the addition of a catalytic excess of diaphorase and resazurin, to generate a fluorescent signal in proportion to the amount of NADPH remaining. IDH1 WT enzyme as well as mutated isoforms IDH1^R132H, IDH1^R132C, and IDH^2R172K enzymes are commercially available proteins (see e.g. Sino Biological, Abcam, Active Motif or Creative BioMart).
(§2) IDH1^R132H homodimer enzyme are diluted to 8 nM, in 10 μL of Assay Buffer (150 mM NaCl, 50 mM Tris-HCl pH 7.6, 10 mM MgCl2, 0.001% Triton X-100, 4 mM β-mercaptoethanol); 0.2 uL of test compound, previously serially diluted 1 to 3, >10 experimental points from 1 mM in DMSO, is added and the mixture is incubated for 15 minutes at room temperature. The reaction is started with the addition of 10 μL of Substrate Mix (12 uM NADPH, 3.4 mM alpha-ketoglutarate in Assay Buffer) and the mixture is incubated for 60 minutes at room temperature. The reaction is terminated with the addition of 5 μl of Detection Buffer (100 μg/mL diaphorase, 30 μM resazurin, in IX Assay Buffer), and is incubated for 15 minute before reading on a ViewLux as platereader at Ex544/Em590.
Compounds are assayed for their activity against IDH1^R132C following the same assay as above with the following modifications: IDH1^R132C and alpha-ketoglutarate final concentrations in the Assay Buffer is 2 nM and 0.14 mM, respectively.

Experiment [1] concerns the target T2, IDH1^R132H homodimer enzyme (Homo sapiens, UniProt O75874, R132H).
T2 construct: purchased not specified
Nature of the experiment: NADPH depletion assay, IDH1 R132H. In kind it is biochemical. On the procedure: as §1, §2

Where a name gives a salt, the structure may show the parent alone.

T2 sequence (O75874 whole entry R132H): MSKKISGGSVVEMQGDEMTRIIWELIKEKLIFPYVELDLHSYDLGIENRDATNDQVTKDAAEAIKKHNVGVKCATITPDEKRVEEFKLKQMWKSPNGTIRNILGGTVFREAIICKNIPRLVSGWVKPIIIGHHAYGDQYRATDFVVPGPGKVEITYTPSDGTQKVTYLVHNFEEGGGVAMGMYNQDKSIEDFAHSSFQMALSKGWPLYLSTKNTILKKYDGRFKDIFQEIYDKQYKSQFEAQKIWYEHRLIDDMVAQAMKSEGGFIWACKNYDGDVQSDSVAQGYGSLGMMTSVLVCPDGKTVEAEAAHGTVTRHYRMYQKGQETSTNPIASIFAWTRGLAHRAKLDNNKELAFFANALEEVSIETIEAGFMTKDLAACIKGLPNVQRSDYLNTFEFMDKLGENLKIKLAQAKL
T1 sequence (O75874 whole entry R132C): as the sequence (O75874 whole entry R132H) above, with H132C counted along it

On to `C=CC(=O)N1CCN(Cc2ccc([C@H](C)Nc3ncc4ccc(=O)n(CC)c4n3)cc2)C[C@@H]1C` [cpd 211, 2-{[(1S)-1-(4-{[(3S)-4-acryloyl-3-methylpiperazin-1-yl]methyl}phenyl)ethyl]amino}-8-ethylpyrido[2,3-d]pyrimidin-7(8H)-one], for which, at IDH1^R132C, the IC50 amounted to 525 nM. In the case of `C[C@H](Nc1ncc2ccc(=O)n(Cc3c(F)cccc3F)c2n1)c1ccc(C(=O)NC2CCOCC2)cc1` [cpd 78, 4-[(1S)-1-{[8-(2,6-difluorobenzyl)-7-oxo-pyrido[2,3-d]pyrimidin-2-yl]amino}ethyl]-N-(tetrahydro-2H-pyran-4-yl) benzamide], the IC50 in experiment [1] is 896 nM; against IDH1^R132C, 1380 nM. Turning to `C[C@H](Nc1ncc2cc(F)c(=O)n(CC(C)(C)C)c2n1)c1ccccc1` [cpd 47, 8-(2,2-Dimethyl-propyl)-6-fluoro-2-((S)-1-phenyl-ethylamino)-8H-pyrido[2,3-d]pyrimidin-7-one], the IC50 in experiment [1] worked out at 1810 nM; against IDH1^R132C, 597 nM. Consider `C=CC(=O)N1CCN(Cc2ccc([C@H](C)Nc3ncc4ccc(=O)n(CC)c4n3)cc2)[C@@H](C)C1` [cpd 210, 2-{[(1S)-1-(4-{[(2S)-4-acryloyl-2-methylpiperazin-1-yl]methyl}phenyl)ethyl]amino}-8-ethylpyrido[2,3-d]pyrimidin-7(8H)-one], for which, on IDH1^R132C, the IC50 is 183 nM. Regarding `C[C@H](Nc1ncc2ccc(=O)n(CC(C)(C)C)c2n1)c1ccc(CN2CCN(C(=O)C3CC3)CC2)cc1` [cpd 158, 2-{[(1S)-1-(4-{[4-(cyclopropylcarbonyl)piperazin-1-yl]methyl}phenyl)ethyl]amino}-8-(2,2-dimethylpropyl) pyrido[2,3-d]pyrimidin-7(8H)-one], the IC50 in experiment [1] was 126 nM; at IDH1^R132C, 40 nM. Consider `C[C@H](Nc1ncc2ccc(=O)n(CC(C)(C)C)c2n1)c1ccc(C(=O)NC2CCC(F)(F)CC2)c(Cl)c1` [cpd 88, 2-chloro-N-(4,4-difluorocyclohexyl)-4-[(1S)-1-{[8-(2,2-dimethylpropyl)-7-oxo-7,8-dihydropyrido[2,3-d]pyrimidin-2-yl]amino}ethyl]benzamide], for which the IC50 in experiment [1] came out at 138 nM; on IDH1^R132C, 97 nM. The corresponding values for `CCn1c(=O)ccc2cnc(N[C@@H](C)c3ccc(C(=O)N4CCN(C(=O)OC(C)(C)C)CC4)cc3)nc21` [cpd 189, tert-butyl 4-(4-{(1S)-1-[(8-ethyl-7-oxo-7,8-dihydropyrido[2,3-d]pyrimidin-2-yl)amino]ethyl}benzoyl)piperazine-1-carboxylate] are 3770 nM and 811 nM. Turning to `CCCn1c(=O)ccc2cnc(N[C@@H](C)c3ccc(CN4CCN(C(C)=O)CC4)cc3)nc21` [cpd 103, 2-{[(1S)-1-{4-[(4-acetylpiperazin-1-yl)methyl]phenyl}ethyl]amino}-8-propylpyrido[2,3-d]pyrimidin-7(8H)-one], the IC50 came to 1590 nM in experiment [1] and 634 nM on IDH1^R132C. On to `C[C@H](Nc1ncc2ccc(=O)n(CC(C)(C)C)c2n1)c1ccc(CN2CCNCC2)cc1` [cpd 138, 8-(2,2-Dimethyl-propyl)-2-[(S)-1-(4-piperazin-1-ylmethyl-phenyl)-ethylamino]-8H-pyrido[2,3-d]pyrimidin-7-one hydrochloride], for which the IC50 was 2260 nM in experiment [1] and 777 nM against IDH1^R132C. The corresponding values for `C=CC(=O)N1CCN(Cc2ccc([C@H](C)Nc3ncc4ccc(=O)n(CCN=[N+]=[N-])c4n3)cc2)CC1` [cpd 182, 2-{[(1S)-1-{4-[(4-acryloylpiperazin-1-yl)methyl]phenyl}ethyl]amino}-8-(2-azidoethyl)pyrido[2,3-d]pyrimidin-7(8H)-one] are 103 nM and 61 nM. The corresponding values for `C[C@H](Nc1ncc2ccc(=O)n(Cc3c(F)cccc3F)c2n1)c1ccc(CO)cc1` [cpd 92, 8-(2,6-difluorobenzyl)-2-({(1S)-1-[4-(hydroxymethyl)phenyl]ethyl}amino)pyrido[2,3-d]pyrimidin-7(8H)-one] are 713 nM and 715 nM. The corresponding values for `Cc1cc(=O)n(CC(C)(C)C)c2nc(N[C@@H](C)c3ccc(CN4CCCC(F)(F)C4)cc3)ncc12` [cpd 60, 2-{(S)-1-[4-(3,3-Difluoro-piperidin-1-ylmethyl)-phenyl]-ethylamino}-8-(2,2-dimethyl-propyl)-5-methyl-8H-pyrido [2,3-d]pyrimidin-7-one] are 341 nM and 139 nM. Take `COCCn1c(=O)ccc2cnc(N[C@@H](C)c3ccc(CN4CCC(F)(F)CC4)cc3)nc21` [cpd 114, 2-{[(1S)-1-{4-[(4,4-difluoropiperidin-1-yl)methyl]phenyl}ethyl]amino}-8-(2-methoxyethyl)pyrido[2,3-d]pyrimidin-7(8H)-one]: the concentration for half-maximal inhibition (IC50) in experiment [1] stood at 2370 nM; on IDH1^R132C, 1910 nM. Take `C[C@H](Nc1ncc2ccc(=O)n(CC(C)(C)C)c2n1)c1ccc(CN2CC(F)(F)C2)cc1` [cpd 147, 2-{[(1S)-1-{4-[(3,3-difluoroazetidin-1-yl)methyl]phenyl}ethyl]amino}-8-(2,2-dimethylpropyl)pyrido[2,3-d]pyrimidin-7(8H)-one]: the values for the IC50 (in experiment [1]; at IDH1^R132C) were 473 nM and 173 nM, respectively.

With `C[C@H](Nc1ncc2ccc(=O)n(CC(C)(C)C)c2n1)c1ccc(CN2CCOCC2)cc1F` [cpd 153, 8-(2,2-dimethylpropyl)-2-({(1S)-1-[2-fluoro-4-(morpholin-4-ylmethyl)phenyl]ethyl}amino)pyrido[2,3-d]-pyrimidin-7(8H)-one], the IC50 in experiment [1] came to 226 nM; on IDH1^R132C, 41 nM. The corresponding values for `C[C@H](Nc1ncc2ccc(=O)n(CC(F)(F)F)c2n1)c1ccc(Cl)cc1` [cpd 18, 2-{[(1S)-1-(4-chlorophenyl)ethyl]amino}-8-(2,2,2-trifluoroethyl)pyrido[2,3-d]pyrimidin-7(8H)-one] are 4070 nM and 1550 nM. `C[C@H](Nc1ncc2ccc(=O)n(CC(C)(C)C)c2n1)c1ccc(O)cc1` [cpd 145, 8-(2,2-Dimethyl-propyl)-2-[(S)-1-(4-hydroxy-phenyl)-ethylamino]-8H-pyrido[2,3-d]pyrimidin-7-one]: the IC50 is 3560 nM in experiment [1] and 1320 nM on IDH1^R132C. The corresponding values for `COC(=O)c1ccc([C@H](C)Nc2ncc3ccc(=O)n(Cc4ccc(F)cc4C(F)(F)F)c3n2)cc1` [cpd 8, methyl-4-[(1S)-1-({8-[4-fluoro-2-(trifluoromethyl)benzyl]-7-oxo-pyrido[2,3-d]pyrimidin-2-yl}amino)ethyl]benzoate] are 2440 nM and 1380 nM. The corresponding values for `C[C@H](Nc1ncc2ccc(=O)n(CCF)c2n1)c1ccc(Cl)cc1` [cpd 17, 2-{[(1S)-1-(4-chlorophenyl)ethyl]amino}-8-(2-fluoroethyl)pyrido[2,3-d]pyrimidin-7(8H)-one] are 4910 nM and 1890 nM. At IDH1^R132C, `CCC(=O)N1CCN(C(CC)c2ccc([C@H](C)Nc3ncc4ccc(=O)n(C(C)C)c4n3)cc2)CC1` (stereo partly drawn) [cpd 240, 2-{[(1S)-1-{4-[1-(4-propanoylpiperazin-1-yl)propyl]phenyl}ethyl]amino}-8-(propan-2-yl)pyrido[2,3-d]pyrimidin-7(8H)-one] gave an IC50 of 68 nM. As for `CC(C)[C@H](C)n1c(=O)ccc2cnc(N[C@@H](C)c3ccc(N4CCNCC4)nc3)nc21` [cpd 180, 8-[(2S)-3-methylbutan-2-yl]-2-({(1S)-1-[6-(piperazin-1-yl)pyridin-3-yl]ethyl}amino)pyrido[2,3-d]pyrimidin-7(8H)-one], on IDH1^R132C, inhibition was half-maximal at 3540 nM (IC50).

With `C=CC(=O)N1CCN(Cc2ccc([C@H](C)Nc3ncc4ccc(=O)n(CC)c4n3)cc2)C[C@H]1C` [cpd 208, 2-{[(1S)-1-(4-{[(3R)-4-acryloyl-3-methylpiperazin-1-yl]methyl}phenyl)ethyl]amino}-8-ethylpyrido[2,3-d]pyrimidin-7(8H)-one], at IDH1^R132C, the IC50 was 213 nM.

For `C=CC(=O)N1CCN(Cc2ccc([C@H](C)Nc3ncc4ccc(=O)n(CC)c4n3)cc2)[C@H](C)C1` [cpd 207, 2-{[(1S)-1-(4-{[(2R)-4-acryloyl-2-methylpiperazin-1-yl]methyl}phenyl)ethyl]amino}-8-ethylpyrido[2,3-d]pyrimidin-7(8H)-one], the IC50 on IDH1^R132C turned out to be 624 nM.

Molecule `C=CC(=O)N1CCN(Cc2ccc([C@H](C)Nc3cc4c(ccc(=O)n4CC)cn3)cc2)CC1` [cpd 236, 7-{(S)-1-[4-(4-Acryloyl-piperazin-1-ylmethyl)-phenyl]-ethylamino}-1-ethyl-1H-[1,6]naphthyridin-2-one] yielded an IC50 against IDH1^R132C of 105 nM.

`CCn1c(=O)ccc2cnc(N[C@@H](C)c3ccc(CN4CCN(C(=O)OC(C)(C)C)CC4)cc3)cc21` [cpd 232, 4-{4-[(S)-1-(1-Ethyl-2-oxo-1,2-dihydro-[1,6]naphthyridin-7-ylamino)-ethyl]-benzyl}-piperazine-1-carboxylic acid tert-butyl ester] returned an IC50 on IDH1^R132C of 330 nM.

Molecule `C=CC(=O)N1CC[C@@H](Oc2ccc([C@H](C)Nc3ncc4ccc(=O)n(CC)c4n3)cc2)C1` [cpd 223, 2-{[(1S)-1-(4-{[(3R)-1-acryloylpyrrolidin-3-yl]oxy}phenyl)ethyl]amino}-8-ethylpyrido[2,3-d]pyrimidin-7(8H)-one] had a concentration for half-maximal inhibition (IC50) against IDH1^R132C of 1670 nM.
